Experimental data published in ChEMBL document CHEMBL1139273, “Aryl aminopyrazole benzamides as oral non-steroidal selective glucocorticoid receptor agonists” (Bioorg Med Chem Lett, 2009).

Assays:
[1] = Inhibition of TNF-induced NF-kappaB activation in human A549 cells after 15 hrs; details: for IC50: Homo sapiens, A549, 15 h, read-out: pIC50 (converted); for pIC50: a549
A549 = experiment: Inhibition of TNF-induced NFkappaB activation in human A549 cells after 15 hrs relative to Dexamethasone; type: cell-based; design: scale not given: the % may be the effect or the level left
Glucocorticoid receptor [2] = target: T1, Glucocorticoid receptor (Homo sapiens, UniProt P04150)
T1 sequence (P04150 whole entry): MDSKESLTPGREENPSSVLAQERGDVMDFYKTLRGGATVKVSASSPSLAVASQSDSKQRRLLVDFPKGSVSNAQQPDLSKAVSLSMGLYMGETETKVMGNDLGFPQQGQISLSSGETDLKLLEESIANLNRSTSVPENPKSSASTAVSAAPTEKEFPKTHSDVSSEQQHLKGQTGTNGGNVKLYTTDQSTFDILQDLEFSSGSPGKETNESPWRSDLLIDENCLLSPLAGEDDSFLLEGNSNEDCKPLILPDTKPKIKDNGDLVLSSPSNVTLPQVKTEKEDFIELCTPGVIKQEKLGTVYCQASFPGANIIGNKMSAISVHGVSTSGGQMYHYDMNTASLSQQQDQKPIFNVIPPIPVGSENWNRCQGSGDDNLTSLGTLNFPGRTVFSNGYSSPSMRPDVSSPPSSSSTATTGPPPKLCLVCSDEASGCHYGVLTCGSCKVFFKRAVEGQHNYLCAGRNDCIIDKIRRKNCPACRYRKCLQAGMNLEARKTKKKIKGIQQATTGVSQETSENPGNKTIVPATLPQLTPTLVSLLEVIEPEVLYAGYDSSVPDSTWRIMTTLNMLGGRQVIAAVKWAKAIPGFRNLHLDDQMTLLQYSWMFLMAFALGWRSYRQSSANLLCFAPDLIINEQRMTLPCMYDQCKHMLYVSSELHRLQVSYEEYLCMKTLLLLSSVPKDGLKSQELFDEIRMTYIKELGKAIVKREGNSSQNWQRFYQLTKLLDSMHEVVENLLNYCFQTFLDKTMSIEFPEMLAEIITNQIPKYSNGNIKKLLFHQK
Description: Displacement of fluorescent labelled Dexamethasone from glucocorticoid receptor

Glucocorticoid receptor [3] = target: T1, Glucocorticoid receptor; remark: listed apart in the source
Description: Agonist activity at human glucocorticoid receptor in human A549 cells assessed as transcriptional activity by MMTV luciferase reporter gene assay

Cytochrome P450 1A2 = target: T2, Cytochrome P450 1A2 (Homo sapiens, UniProt P05177); experiment: Inhibition of CYP1A2; type: ADME
T2 sequence (P05177 whole entry): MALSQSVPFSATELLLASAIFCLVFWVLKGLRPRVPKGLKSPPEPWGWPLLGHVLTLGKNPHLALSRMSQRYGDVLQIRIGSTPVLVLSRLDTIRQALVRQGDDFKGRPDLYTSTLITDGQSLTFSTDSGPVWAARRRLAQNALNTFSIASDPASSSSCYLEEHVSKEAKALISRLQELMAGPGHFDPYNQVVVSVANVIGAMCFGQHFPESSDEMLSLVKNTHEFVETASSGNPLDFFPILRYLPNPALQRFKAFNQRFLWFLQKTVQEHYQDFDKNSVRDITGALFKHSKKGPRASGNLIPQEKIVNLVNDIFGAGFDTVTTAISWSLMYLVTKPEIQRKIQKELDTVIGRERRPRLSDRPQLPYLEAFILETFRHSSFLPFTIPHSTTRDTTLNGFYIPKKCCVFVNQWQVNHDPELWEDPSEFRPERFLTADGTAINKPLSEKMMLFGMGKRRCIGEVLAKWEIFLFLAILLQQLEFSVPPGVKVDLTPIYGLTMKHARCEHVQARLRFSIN

Cytochrome P450 2C19 = Cytochrome P450 2C19 (Homo sapiens, UniProt P33261); experiment: Inhibition of CYP2C19; type: ADME
Cytochrome P450 2C19, sequence (P33261 whole entry): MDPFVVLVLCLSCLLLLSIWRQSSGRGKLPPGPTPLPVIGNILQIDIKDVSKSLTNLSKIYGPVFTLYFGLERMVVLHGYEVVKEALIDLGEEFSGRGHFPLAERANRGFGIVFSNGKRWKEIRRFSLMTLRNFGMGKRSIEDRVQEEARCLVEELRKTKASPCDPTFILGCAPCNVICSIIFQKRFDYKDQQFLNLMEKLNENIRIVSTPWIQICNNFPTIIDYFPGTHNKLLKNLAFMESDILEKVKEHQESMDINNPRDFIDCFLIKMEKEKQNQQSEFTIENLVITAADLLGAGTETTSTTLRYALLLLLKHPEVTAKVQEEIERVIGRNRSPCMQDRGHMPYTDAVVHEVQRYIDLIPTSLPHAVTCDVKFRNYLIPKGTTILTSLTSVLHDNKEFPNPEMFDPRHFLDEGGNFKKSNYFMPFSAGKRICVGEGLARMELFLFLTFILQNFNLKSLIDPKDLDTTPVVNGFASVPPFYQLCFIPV

Cytochrome P450 2C9 = Cytochrome P450 2C9 (Homo sapiens, UniProt P11712); experiment: Inhibition of CYP2C9; type: ADME
Cytochrome P450 2C9, sequence (P11712 whole entry): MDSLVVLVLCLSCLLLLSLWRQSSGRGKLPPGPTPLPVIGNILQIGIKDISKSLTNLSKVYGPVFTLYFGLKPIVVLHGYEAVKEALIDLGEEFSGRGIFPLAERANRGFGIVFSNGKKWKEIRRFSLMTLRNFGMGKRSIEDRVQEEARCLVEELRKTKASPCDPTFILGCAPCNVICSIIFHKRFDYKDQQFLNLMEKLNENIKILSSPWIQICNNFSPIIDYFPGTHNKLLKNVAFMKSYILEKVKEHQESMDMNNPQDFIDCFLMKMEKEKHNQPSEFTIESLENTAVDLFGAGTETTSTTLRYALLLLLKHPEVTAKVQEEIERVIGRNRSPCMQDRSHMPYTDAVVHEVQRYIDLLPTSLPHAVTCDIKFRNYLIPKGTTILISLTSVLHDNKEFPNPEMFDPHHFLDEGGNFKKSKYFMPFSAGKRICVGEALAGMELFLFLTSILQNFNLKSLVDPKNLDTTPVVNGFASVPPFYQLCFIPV

Cytochrome P450 2D6 = Cytochrome P450 2D6 (Homo sapiens, UniProt P10635); experiment: Inhibition of CYP2D6; type: ADME
Cytochrome P450 2D6, sequence (P10635 whole entry): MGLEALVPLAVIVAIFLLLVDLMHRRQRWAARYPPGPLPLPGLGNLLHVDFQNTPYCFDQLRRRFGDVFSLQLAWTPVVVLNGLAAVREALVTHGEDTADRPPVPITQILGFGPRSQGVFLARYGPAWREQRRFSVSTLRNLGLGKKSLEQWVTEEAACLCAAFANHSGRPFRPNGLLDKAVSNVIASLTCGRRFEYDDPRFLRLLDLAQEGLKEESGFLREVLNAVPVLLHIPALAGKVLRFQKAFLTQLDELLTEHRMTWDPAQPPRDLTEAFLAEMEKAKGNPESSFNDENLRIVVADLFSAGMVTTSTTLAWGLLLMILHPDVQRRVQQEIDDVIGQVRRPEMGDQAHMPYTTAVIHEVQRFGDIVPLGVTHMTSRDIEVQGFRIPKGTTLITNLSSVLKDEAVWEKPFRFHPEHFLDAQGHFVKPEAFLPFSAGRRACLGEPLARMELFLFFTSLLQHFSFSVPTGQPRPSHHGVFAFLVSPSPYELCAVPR

Albumin = Albumin (Homo sapiens, UniProt P02768); experiment: Binding affinity to human serum albumin by fast gradient HPLC; type: ADME; details: isolated protein
Albumin, sequence (P02768 whole entry): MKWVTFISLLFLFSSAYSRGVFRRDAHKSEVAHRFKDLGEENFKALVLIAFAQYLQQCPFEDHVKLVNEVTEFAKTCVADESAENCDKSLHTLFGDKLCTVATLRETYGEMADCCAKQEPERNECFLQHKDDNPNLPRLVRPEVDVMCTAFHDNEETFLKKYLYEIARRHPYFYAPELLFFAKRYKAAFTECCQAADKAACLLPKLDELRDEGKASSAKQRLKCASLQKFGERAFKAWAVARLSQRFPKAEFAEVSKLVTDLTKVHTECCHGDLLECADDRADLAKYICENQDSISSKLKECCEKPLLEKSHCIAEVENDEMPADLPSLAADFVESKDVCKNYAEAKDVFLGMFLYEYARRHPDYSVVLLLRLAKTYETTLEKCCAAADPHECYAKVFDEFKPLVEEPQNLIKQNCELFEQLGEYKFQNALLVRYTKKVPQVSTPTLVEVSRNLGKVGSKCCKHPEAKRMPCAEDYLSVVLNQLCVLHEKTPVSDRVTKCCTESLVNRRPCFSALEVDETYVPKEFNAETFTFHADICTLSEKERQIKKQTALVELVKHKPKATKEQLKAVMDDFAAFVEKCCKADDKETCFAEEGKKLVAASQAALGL

Cytochrome P450 3A4 = Cytochrome P450 3A4 (Homo sapiens, UniProt P08684)
Cytochrome P450 3A4, sequence (P08684 whole entry): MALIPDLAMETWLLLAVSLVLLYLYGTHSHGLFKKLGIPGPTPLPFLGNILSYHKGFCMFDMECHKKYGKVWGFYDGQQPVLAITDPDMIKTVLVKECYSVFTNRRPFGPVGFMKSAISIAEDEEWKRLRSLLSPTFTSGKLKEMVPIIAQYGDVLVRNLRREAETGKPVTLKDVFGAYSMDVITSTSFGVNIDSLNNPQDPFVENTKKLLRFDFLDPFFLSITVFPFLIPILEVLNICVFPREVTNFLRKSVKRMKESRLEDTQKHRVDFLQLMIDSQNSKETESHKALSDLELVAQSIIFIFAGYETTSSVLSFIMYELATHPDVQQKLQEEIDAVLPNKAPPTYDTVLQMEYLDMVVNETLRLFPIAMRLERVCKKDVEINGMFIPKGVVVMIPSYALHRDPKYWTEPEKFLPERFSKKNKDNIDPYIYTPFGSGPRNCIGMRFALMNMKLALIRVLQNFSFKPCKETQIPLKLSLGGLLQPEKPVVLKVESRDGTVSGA

[4] = Clearance in Sprague-Dawley rat at 1 mg/kg, iv and 1 mg/kg, po; type: ADME, organism-based; details: in vivo
[5] = Volume of distribution at steady state in Sprague-Dawley rat at 1 mg/kg, iv and 1 mg/kg, po; type: ADME, organism-based; details: in vivo, read-out: Vdss
[6] = Oral bioavailability in Sprague-Dawley rat at 1 mg/kg; type: ADME, organism-based; details: in vivo

| SMILES | IC50 [1] [µM] | IC50 (Glucocorticoid receptor [2]) [µM] | EC50 (Glucocorticoid receptor [3]) [µM] | Activity (A549) [%] | also measured |
| --- | --- | --- | --- | --- | --- |
| CCN(CC(O)(CNC(=O)c1cnn(-c2ccc(F)cc2)c1N)C(F)(F)F)C(=O)c1ccc2[nH]ccc2c1 (stereo not given) | 0.001 | 0.00631 | 0.00316 | 100 |  |
| CCN(CC(O)(CNC(=O)c1cnn(-c2ccc(F)cc2)c1N)C(F)(F)F)C(=O)c1ccccc1S(C)(=O)=O (stereo not given) [listing 2 of 2 here] |  |  |  | 99 |  |
| CCN(CC(O)(CNC(=O)c1cnn(-c2ccc(F)cc2)c1N)C(F)(F)F)C(=O)c1ncccc1Cl (stereo not given) |  |  |  | 99 |  |
| CN(CC(O)(CNC(=O)c1cnn(-c2ccc(F)cc2)c1N)C(F)(F)F)C(=O)c1c(F)cccc1F (racemic) | 0.0501 | 0.0794 | 0.251 | 95 | IC50 (Cytochrome P450 1A2): 100 µM; IC50 (Cytochrome P450 2C19): 49 µM; IC50 (Cytochrome P450 2C9): 10 µM; IC50 (Cytochrome P450 2D6): 36 µM; IC50 (Cytochrome P450 3A4): 100 µM |
| Nc1c(C(=O)NCC(O)(CNC(=O)c2c(F)cccc2F)C(F)(F)F)cnn1-c1ccc(F)cc1 (racemic) | 0.316 | 0.398 | > 6.31 | 80 |  |
| CCCN(CC(O)(CNC(=O)c1cnn(-c2ccc(F)cc2)c1N)C(F)(F)F)C(=O)c1c(F)cccc1F (racemic) | 0.0158 | 0.0158 | 0.0251 | 96 | clearance [4]: 36 mL/min/kg; Vd [5]: 5.3 L/kg; bioavailability [6]: 16% |
| CCN(CC(O)(CNC(=O)c1cnn(-c2ccc(F)cc2)c1N)C(F)(F)F)C(=O)c1ccc(Cl)cc1 (racemic) | > 10 | 0.316 | > 6.31 |  |  |
| CCN(CC(O)(CNC(=O)c1cnn(-c2ccc(F)cc2)c1N)C(F)(F)F)C(=O)c1cccnc1Cl (racemic) | 0.251 | 0.0398 | 0.794 | 75 |  |
| CCN(CC(O)(CNC(=O)c1cnn(-c2ccc(F)cc2)c1N)C(F)(F)F)C(=O)c1ccccc1S(C)(=O)=O (racemic) |  |  |  |  | clearance [4]: 17 mL/min/kg; Vd [5]: 3.6 L/kg; bioavailability [6]: 77% |
| CCN(CC(O)(CNC(=O)c1cnn(-c2ccc(F)cc2)c1N)C(F)(F)F)C(=O)c1c(F)cccc1S(C)(=O)=O (racemic) | 0.01 | 0.0501 | 0.0251 | 103 | clearance [4]: 9 mL/min/kg; Vd [5]: 2.6 L/kg; bioavailability [6]: 62% |
| CCN(CC(O)(CNC(=O)c1cnn(-c2ccc(F)cc2)c1N)C(F)(F)F)C(=O)c1ccccc1Cl (racemic) |  |  |  |  | clearance [4]: 32 mL/min/kg; Vd [5]: 4 L/kg; bioavailability [6]: 25% |
| CCN(CC(O)(CNC(=O)c1cnn(-c2ccc(F)cc2)c1N)C(F)(F)F)C(=O)c1c(Cl)cc(Cl)cc1Cl (racemic) | 0.0251 | 0.00631 | 0.0501 | 100 |  |
| CCN(CC(O)(CNC(=O)c1cnn(-c2ccc(F)cc2)c1N)C(F)(F)F)C(=O)c1cccc(Cl)c1 (racemic) | 0.0316 | 0.0158 | 0.251 | 96 |  |
| CCN(CC(O)(CNC(=O)c1cnn(-c2ccc(F)cc2)c1N)C(F)(F)F)C(=O)c1ncccc1Cl (racemic) |  |  |  |  | clearance [4]: 23 mL/min/kg; Vd [5]: 2.8 L/kg; bioavailability [6]: 48% |
| CCN(CC(O)(CNC(=O)c1cnn(-c2ccc(F)cc2)c1N)C(F)(F)F)C(=O)c1ccccc1 (racemic) [listing 2 of 2 here] |  |  |  | 88 |  |
| CCN(CC(O)(CNC(=O)c1cnn(-c2ccc(F)cc2)c1N)C(F)(F)F)C(=O)c1ccccc1 (stereo in doubt; 13c) [listing 2 of 2 here] |  |  |  | 94 |  |
| CCN(CC(O)(CNC(=O)c1cnn(-c2ccc(F)cc2)c1N)C(F)(F)F)C(=O)c1ccccc1Cl (stereo in doubt; 13d) [listing 1 of 2 here] |  |  |  |  | IC50 (Cytochrome P450 1A2): 100 µM; IC50 (Cytochrome P450 2C19): 8 µM; IC50 (Cytochrome P450 2C9): 4 µM; IC50 (Cytochrome P450 2D6): 27 µM; IC50 (Cytochrome P450 3A4): 2 µM |
| CCN(CC(O)(CNC(=O)c1cnn(-c2ccc(F)cc2)c1N)C(F)(F)F)C(=O)c1ccccc1Cl (stereo in doubt; 13d) [listing 2 of 2 here] |  |  |  | 95 |  |
| CCN(CC(O)(CNC(=O)c1cnn(-c2ccc(F)cc2)c1N)C(F)(F)F)C(=O)c1ccccc1Cl (stereo in doubt; 13e) [listing 1 of 2 here] |  |  |  |  | IC50 (Cytochrome P450 1A2): 100 µM; IC50 (Cytochrome P450 2C19): 20 µM; IC50 (Cytochrome P450 2C9): 10 µM; IC50 (Cytochrome P450 2D6): 34 µM; IC50 (Cytochrome P450 3A4): 4 µM |
| CCN(CC(O)(CNC(=O)c1cnn(-c2ccc(F)cc2)c1N)C(F)(F)F)C(=O)c1ccccc1Cl (stereo in doubt; 13e) [listing 2 of 2 here] |  |  |  | 75 |  |
| C[C@]12C=CC(=O)C=C1CC[C@@H]1[C@@H]2[C@@H](O)C[C@@]2(C)[C@H]1CC[C@]2(O)C(=O)CO [PREDNISOLONE] | 0.01 |  |  | 100 |  |

Second part, led by results:

| IC50 [1] [µM] | IC50 (Glucocorticoid receptor [2]) [µM] | EC50 (Glucocorticoid receptor [3]) [µM] | SMILES | Activity (A549) [%] | also measured |
| --- | --- | --- | --- | --- | --- |
| 0.0126 | 0.0126 | 0.02 | CCN(CC(O)(CNC(=O)c1cnn(-c2ccc(F)cc2)c1N)C(F)(F)F)C(=O)c1ccccc1F (stereo not given) | 98 |  |
| 0.02 | 0.0631 | 0.158 | CCN(CC(O)(CNC(=O)c1cnn(-c2ccc(F)cc2)c1N)C(F)(F)F)C(=O)c1ccccc1S(C)(=O)=O (stereo not given) [listing 1 of 2 here] |  | IC50 (Cytochrome P450 1A2): > 40 µM; IC50 (Cytochrome P450 2C19): 87 µM; IC50 (Cytochrome P450 2C9): 23 µM; IC50 (Cytochrome P450 2D6): 96 µM; Activity (Albumin): 81% |
| 0.1 | 0.02 | 0.316 | CCN(CC(O)(CNC(=O)c1cnn(-c2ccc(F)cc2)c1N)C(F)(F)F)C(=O)c1ccc(F)cc1Cl (racemic) | 76 |  |
|  | 0.0501 | 0.0501 | CCN(CC(O)(CNC(=O)c1cnn(-c2ccc(F)cc2)c1N)C(F)(F)F)C(=O)c1ccccc1 (racemic) [listing 1 of 2 here] |  | pIC50 [1]: 7.3; clearance [4]: 21 mL/min/kg; Vd [5]: 2.5 L/kg; bioavailability [6]: 12% |
| 0.02 | 0.00794 | 0.0501 | CCN(CC(O)(CNC(=O)c1cnn(-c2ccc(F)cc2)c1N)C(F)(F)F)C(=O)c1cccc(F)c1Cl (racemic) | 92 |  |
|  | 0.126 | > 6.31 | CCN(CC(O)(CNC(=O)c1cnn(-c2ccc(F)cc2)c1N)C(F)(F)F)C(=O)c1ccccc1 (stereo in doubt; 13b) |  | pIC50 [1]: < 5 |
|  | 0.0126 | 0.0251 | CCN(CC(O)(CNC(=O)c1cnn(-c2ccc(F)cc2)c1N)C(F)(F)F)C(=O)c1ccccc1 (stereo in doubt; 13c) [listing 1 of 2 here] |  | pIC50 [1]: 8 |
